Experimental data reported in ChEMBL document CHEMBL3784933, “Synthesis and antitumor evaluation of trimethoxyanilides based on 4(3H)-quinazolinone scaffolds” (2016).

Columns and labels:
Type in all cases: functional
[1] = test system: CCRF-CEM; assay: Cytotoxicity against human CCRF-CEM cells assessed as growth inhibition at 10 uM after 48 hrs by SRB assay; settings: read-out: GI
[2] = Cytotoxicity against human RPMI8226 cells assessed as growth inhibition at 10 uM after 48 hrs by SRB assay; settings: RPMI-8226, 48 h, read-out: GI
[3] = test system: SR; assay: Cytotoxicity against human SR cells assessed as growth inhibition at 10 uM after 48 hrs by SRB assay; settings: read-out: GI
[4] = test system: A549; assay: Cytotoxicity against human A549 cells assessed as growth inhibition at 10 uM after 48 hrs by SRB assay; settings: A549, 48 h, read-out: GI
[5] = Cytotoxicity against human HOP62 cells assessed as growth inhibition at 10 uM after 48 hrs by SRB assay; settings: HOP-62, 48 h, read-out: GI
[6] = Cytotoxicity against human HOP92 cells assessed as growth inhibition at 10 uM after 48 hrs by SRB assay; settings: HOP-92, 48 h, read-out: GI
[7] = test system: NCI-H226; assay: Cytotoxicity against human NCI-H226 cells assessed as growth inhibition at 10 uM after 48 hrs by SRB assay; settings: NCI-H226, 48 h, read-out: GI
[8] = test system: NCI-H23; assay: Cytotoxicity against human NCI-H23 cells assessed as growth inhibition at 10 uM after 48 hrs by SRB assay; settings: NCI-H23, 48 h, read-out: GI
[9] = test system: NCI-H460; assay: Cytotoxicity against human NCI-H460 cells assessed as growth inhibition at 10 uM after 48 hrs by SRB assay; settings: NCI-H460, 48 h, read-out: GI
[10] = test system: NCI-H522; assay: Cytotoxicity against human NCI-H522 cells assessed as growth inhibition at 10 uM after 48 hrs by SRB assay; settings: NCI-H522, 48 h, read-out: GI
[11] = Cytotoxicity against human HCT116 cells assessed as growth inhibition at 10 uM after 48 hrs by SRB assay; settings: HCT-116, 48 h, read-out: GI
[12] = Cytotoxicity against human SF268 cells assessed as growth inhibition at 10 uM after 48 hrs by SRB assay; settings: SF-268, 48 h, read-out: GI
[13] = Cytotoxicity against human SF295 cells assessed as growth inhibition at 10 uM after 48 hrs by SRB assay; settings: SF-295, 48 h, read-out: GI
[14] = Cytotoxicity against human SF539 cells assessed as growth inhibition at 10 uM after 48 hrs by SRB assay; settings: SF-539, 48 h, read-out: GI
[15] = Cytotoxicity against human SNB19 cells assessed as growth inhibition at 10 uM after 48 hrs by SRB assay; settings: SNB-19, 48 h, read-out: GI
[16] = Cytotoxicity against human SNB75 cells assessed as growth inhibition at 10 uM after 48 hrs by SRB assay; settings: SNB-75, 48 h, read-out: GI
[17] = test system: U-251; assay: Cytotoxicity against human U251 cells assessed as growth inhibition at 10 uM after 48 hrs by SRB assay; settings: U-251, 48 h, read-out: GI
[18] = Cytotoxicity against human LOXIMVI cells assessed as growth inhibition at 10 uM after 48 hrs by SRB assay; settings: LOX IMVI, read-out: GI
[19] = test system: Malme-3M; assay: Cytotoxicity against human MALME-3M cells assessed as growth inhibition at 10 uM after 48 hrs by SRB assay; settings: read-out: GI
[20] = test system: SK-MEL-2; assay: Cytotoxicity against human SK-MEL-2 cells assessed as growth inhibition at 10 uM after 48 hrs by SRB assay; settings: SK-MEL-2, 48 h, read-out: GI
[21] = test system: SK-MEL-5; assay: Cytotoxicity against human SK-MEL-5 cells assessed as growth inhibition at 10 uM after 48 hrs by SRB assay; settings: SK-MEL-5, 48 h, read-out: GI
[22] = Cytotoxicity against human UACC257 cells assessed as growth inhibition at 10 uM after 48 hrs by SRB assay; settings: UACC-257, 48 h, read-out: GI
[23] = Cytotoxicity against human UACC62 cells assessed as growth inhibition at 10 uM after 48 hrs by SRB assay; settings: UACC-62, 48 h, read-out: GI
[24] = Cytotoxicity against human IGROV1 cells assessed as growth inhibition at 10 uM after 48 hrs by SRB assay; settings: IGROV-1, 48 h, read-out: GI
[25] = Cytotoxicity against human OVCAR3 cells assessed as growth inhibition at 10 uM after 48 hrs by SRB assay; settings: OVCAR-3, 48 h, read-out: GI
[26] = Cytotoxicity against human OVCAR4 cells assessed as growth inhibition at 10 uM after 48 hrs by SRB assay; settings: OVCAR-4, 48 h, read-out: GI
[27] = Cytotoxicity against human OVCAR8 cells assessed as growth inhibition at 10 uM after 48 hrs by SRB assay; settings: OVCAR-8, 48 h, read-out: GI
[28] = Cytotoxicity against human NCI-ADR-RES cells assessed as growth inhibition at 10 uM after 48 hrs by SRB assay; settings: read-out: GI
[29] = Cytotoxicity against human SKOV3 cells assessed as growth inhibition at 10 uM after 48 hrs by SRB assay; settings: SK-OV-3, 48 h, read-out: GI
[30] = test system: A498; assay: Cytotoxicity against human A498 cells assessed as growth inhibition at 10 uM after 48 hrs by SRB assay; settings: A498, 48 h, read-out: GI
[31] = test system: ACHN; assay: Cytotoxicity against human ACHN cells assessed as growth inhibition at 10 uM after 48 hrs by SRB assay; settings: read-out: GI
[32] = Cytotoxicity against human Caki1 cells assessed as growth inhibition at 10 uM after 48 hrs by SRB assay; settings: CAKI-1, 48 h, read-out: GI
[33] = Cytotoxicity against human RXF393 cells assessed as growth inhibition at 10 uM after 48 hrs by SRB assay; settings: RXF 393, 48 h, read-out: GI
[34] = test system: SN12C; assay: Cytotoxicity against human SN12C cells assessed as growth inhibition at 10 uM after 48 hrs by SRB assay; settings: read-out: GI
[35] = Cytotoxicity against human UO31 cells assessed as growth inhibition at 10 uM after 48 hrs by SRB assay; settings: UO-31, 48 h, read-out: GI
[36] = Cytotoxicity against human PC3 cells assessed as growth inhibition at 10 uM after 48 hrs by SRB assay; settings: PC-3, 48 h, read-out: GI
[37] = Cytotoxicity against human DU145 cells assessed as growth inhibition at 10 uM after 48 hrs by SRB assay; settings: DU-145, 48 h, read-out: GI
[38] = test system: MCF7; assay: Cytotoxicity against human MCF7 cells assessed as growth inhibition at 10 uM after 48 hrs by SRB assay; settings: MCF7, 48 h, read-out: GI
[39] = test system: MDA-MB-231; assay: Cytotoxicity against human MDA-MB-231 cells assessed as growth inhibition at 10 uM after 48 hrs by SRB assay; settings: MDA-MB-231, 48 h, read-out: GI
[40] = Cytotoxicity against human BT549 cells assessed as growth inhibition at 10 uM after 48 hrs by SRB assay; settings: BT-549, 48 h, read-out: GI
[41] = test system: T47D; assay: Cytotoxicity against human T47D cells assessed as growth inhibition at 10 uM after 48 hrs by SRB assay; settings: read-out: GI
[42] = test system: MDA-MB-468; assay: Cytotoxicity against human MDA-MB-468 cells assessed as growth inhibition at 10 uM after 48 hrs by SRB assay; settings: MDA-MB-468, 48 h, read-out: GI
[43] = Cytotoxicity against human NCI-H322 cells assessed as growth inhibition at 10 uM after 48 hrs by SRB assay; settings: NCI-H322, 48 h, read-out: GI
[44] = test system: K562; assay: Cytotoxicity against human K562 cells assessed as growth inhibition at 10 uM after 48 hrs by SRB assay; settings: K562, 48 h, read-out: GI
[45] = Cytotoxicity against human MOLT4 cells assessed as growth inhibition at 10 uM after 48 hrs by SRB assay; settings: MOLT-4, 48 h, read-out: GI
[46] = test system: NCI-H322M; assay: Cytotoxicity against human NCI-H322M cells assessed as growth inhibition at 10 uM after 48 hrs by SRB assay; settings: read-out: GI
[47] = Cytotoxicity against human SW620 cells assessed as growth inhibition at 10 uM after 48 hrs by SRB assay; settings: SW-620, 48 h, read-out: GI
[48] = Cytotoxicity against human OVCAR5 cells assessed as growth inhibition at 10 uM after 48 hrs by SRB assay; settings: OVCAR-5, 48 h, read-out: GI
[49] = test system: 786-0; assay: Cytotoxicity against human 786-0 cells assessed as growth inhibition at 10 uM after 48 hrs by SRB assay; settings: 786-0, 48 h, read-out: GI
[50] = Cytotoxicity against human Hs 578T cells assessed as growth inhibition at 10 uM after 48 hrs by SRB assay; settings: read-out: GI

COc1cc(NC(=O)CCSc2nc3ccccc3c(=O)n2-c2ccc(F)cc2)cc(OC)c1OC gave an inhibition of growth at 10 µM [1] of 67%, an inhibition of growth at 10 µM [2] of 17% and an inhibition of growth at 10 µM [3] of 11%. It also gave an inhibition of growth at 10 µM [4] of 28%, an inhibition of growth at 10 µM [5] of 40% and an inhibition of growth at 10 µM [6] of 103%. For the same compound, the inhibition of growth at 10 µM [7] was 38%, the inhibition of growth at 10 µM [8] was 21% and the inhibition of growth at 10 µM [9] was 18%. The inhibition of growth at 10 µM [10] was 68%, the inhibition of growth at 10 µM [11] was 30% and the inhibition of growth at 10 µM [12] was 34%. The inhibition of growth at 10 µM [13] was 40%, the inhibition of growth at 10 µM [14] was 34% and the inhibition of growth at 10 µM [15] was 32%. For the same compound, the inhibition of growth at 10 µM [16] was 117%, the inhibition of growth at 10 µM [17] was 42% and the inhibition of growth at 10 µM [18] was 12%. The inhibition of growth at 10 µM [19] was 40%, the inhibition of growth at 10 µM [20] was 47% and the inhibition of growth at 10 µM [21] was 11%. The inhibition of growth at 10 µM [22] was 15%, the inhibition of growth at 10 µM [23] was 32% and the inhibition of growth at 10 µM [24] was 25%. For the same compound, the inhibition of growth at 10 µM [25] was 18%, the inhibition of growth at 10 µM [26] was 104% and the inhibition of growth at 10 µM [27] was 61%. It also gave an inhibition of growth at 10 µM [28] of 28%, an inhibition of growth at 10 µM [29] of 70% and an inhibition of growth at 10 µM [30] of 22%. It also gave an inhibition of growth at 10 µM [31] of 39%, an inhibition of growth at 10 µM [32] of 22% and an inhibition of growth at 10 µM [33] of 40%. It also gave an inhibition of growth at 10 µM [34] of 20%, an inhibition of growth at 10 µM [35] of 23% and an inhibition of growth at 10 µM [36] of 25%. For the same compound, the inhibition of growth at 10 µM [37] was 21%, the inhibition of growth at 10 µM [38] was 22% and the inhibition of growth at 10 µM [39] was 47%. For the same compound, the inhibition of growth at 10 µM [40] was 28%, the inhibition of growth at 10 µM [41] was 39% and the inhibition of growth at 10 µM [42] was 21%. The inhibition of growth at 10 µM [43] was 14%.

In the case of COc1cc(NC(=O)CCSc2nc3ccc(C)cc3c(=O)n2-c2ccccc2)cc(OC)c1OC, the inhibition of growth at 10 µM [1] is reported as 35%, the inhibition of growth at 10 µM [44] is reported as 10% and the inhibition of growth at 10 µM [45] is reported as 43%. For the same compound, the inhibition of growth at 10 µM [2] was 27%, the inhibition of growth at 10 µM [4] was 15% and the inhibition of growth at 10 µM [6] was 40%. For the same compound, the inhibition of growth at 10 µM [46] was 19%, the inhibition of growth at 10 µM [10] was 80% and the inhibition of growth at 10 µM [11] was 16%. The inhibition of growth at 10 µM [47] was 13%, the inhibition of growth at 10 µM [12] was 34% and the inhibition of growth at 10 µM [13] was 13%. The inhibition of growth at 10 µM [14] was 17%, the inhibition of growth at 10 µM [15] was 17% and the inhibition of growth at 10 µM [16] was 50%. The inhibition of growth at 10 µM [17] was 20%, the inhibition of growth at 10 µM [18] was 62% and the inhibition of growth at 10 µM [19] was 13%. The inhibition of growth at 10 µM [23] was 24%, the inhibition of growth at 10 µM [26] was 23% and the inhibition of growth at 10 µM [48] was 12%. The inhibition of growth at 10 µM [27] was 16%, the inhibition of growth at 10 µM [28] was 26% and the inhibition of growth at 10 µM [49] was 21%. The inhibition of growth at 10 µM [30] was 45%, the inhibition of growth at 10 µM [31] was 24% and the inhibition of growth at 10 µM [32] was 29%. The inhibition of growth at 10 µM [33] was 29%, the inhibition of growth at 10 µM [34] was 17% and the inhibition of growth at 10 µM [35] was 47%. It also gave an inhibition of growth at 10 µM [36] of 36%, an inhibition of growth at 10 µM [39] of 53% and an inhibition of growth at 10 µM [50] of 14%. For the same compound, the inhibition of growth at 10 µM [40] was 12% and the inhibition of growth at 10 µM [41] was 19%.
